Test results as given in PubChem BioAssay AID1259407 (Chemical Carcinogenesis Research Information System (CCRIS), 2018).
Active and inactive are the calls of the source. How the calls were made is not given here.

System: CCRIS mutagenicity, Ames/micronucleus/aberration tests
Assay: CCRIS mutagenicity studies
[1] = Test System: AMES SALMONELLA TYPHIMURIUM, Strain/Indicator: TA100, Metabolic Activation: NONE, Method: PREINCUBATION
[2] = Test System: AMES SALMONELLA TYPHIMURIUM, Strain/Indicator: TA1535, Metabolic Activation: NONE, Method: PREINCUBATION
[3] = Test System: AMES SALMONELLA TYPHIMURIUM, Strain/Indicator: TA100, Metabolic Activation: NONE, Method: STANDARD PLATE
[4] = Test System: AMES SALMONELLA TYPHIMURIUM, Strain/Indicator: TA98, Metabolic Activation: NONE, Method: STANDARD PLATE

`Brc1ccccc1` was tested, and the mutagenic call (End Point: IN VITRO CHROMOSOMAL ABERRATIONS, Test System: CHINESE HAMSTER OVARY CELLS, Metabolic Activation: NONE) was “inactive; negative”, the mutagenic call (End Point: IN VITRO CHROMOSOMAL ABERRATIONS, Test System: CHINESE HAMSTER OVARY CELLS, Metabolic Activation: RAT, LIVER, S-9, AROCLOR 1254) was “inactive; negative” and the mutagenic call (Test System: AMES SALMONELLA TYPHIMURIUM, Strain/Indicator: TA98, Metabolic Activation: HAMSTER, LIVER, S-9, AROCLOR 1254, Method: PREINCUBATION) was “inactive; negative”. For the same molecule, the mutagenic call (Test System: AMES SALMONELLA TYPHIMURIUM, Strain/Indicator: TA98, Metabolic Activation: NONE, Method: PREINCUBATION) was “inactive; negative”, the mutagenic call (Test System: AMES SALMONELLA TYPHIMURIUM, Strain/Indicator: TA98, Metabolic Activation: RAT, LIVER, S-9, AROCLOR 1254, Method: PREINCUBATION) was “inactive; negative” and the mutagenic call (Test System: AMES SALMONELLA TYPHIMURIUM, Strain/Indicator: TA100, Metabolic Activation: HAMSTER, LIVER, S-9, AROCLOR 1254, Method: PREINCUBATION) was “inactive; negative”. For the same molecule, the mutagenic call [1] was “inactive; negative”, the mutagenic call (Test System: AMES SALMONELLA TYPHIMURIUM, Strain/Indicator: TA100, Metabolic Activation: RAT, LIVER, S-9, AROCLOR 1254, Method: PREINCUBATION) was “inactive; negative” and the mutagenic call (Test System: AMES SALMONELLA TYPHIMURIUM, Strain/Indicator: TA1535, Metabolic Activation: HAMSTER, LIVER, S-9, AROCLOR 1254, Method: PREINCUBATION) was “inactive; negative”. The mutagenic call [2] was “inactive; negative”, the mutagenic call (Test System: AMES SALMONELLA TYPHIMURIUM, Strain/Indicator: TA1535, Metabolic Activation: RAT, LIVER, S-9, AROCLOR 1254, Method: PREINCUBATION) was “inactive; negative” and the mutagenic call (Test System: AMES SALMONELLA TYPHIMURIUM, Strain/Indicator: TA1537, Metabolic Activation: HAMSTER, LIVER, S-9, AROCLOR 1254, Method: PREINCUBATION) was “inactive; negative”. For the same molecule, the mutagenic call (Test System: AMES SALMONELLA TYPHIMURIUM, Strain/Indicator: TA1537, Metabolic Activation: NONE, Method: PREINCUBATION) was “inactive; negative” and the mutagenic call (Test System: AMES SALMONELLA TYPHIMURIUM, Strain/Indicator: TA1537, Metabolic Activation: RAT, LIVER, S-9, AROCLOR 1254, Method: PREINCUBATION) was “inactive; negative”.
In the case of `c1ccc(CC2CO2)cc1` (configuration not stated), the mutagenic call [1] is reported as “active; positive”, the mutagenic call [3] is reported as “active; positive” and the mutagenic call [2] is reported as “active; positive”. The mutagenic call (Test System: AMES SALMONELLA TYPHIMURIUM, Strain/Indicator: TA1535, Metabolic Activation: NONE, Method: STANDARD PLATE) was “active; positive”.
In the case of `c1ccc2c(c1)Cc1ccccc1-2`, the mutagenic call (End Point: IN VITRO CHROMOSOMAL ABERRATIONS, Test System: CHINESE HAMSTER LUNG (CHL) CELLS, Metabolic Activation: NONE) is reported as “inactive; negative”, the mutagenic call (End Point: IN VITRO CHROMOSOMAL ABERRATIONS, Test System: CHINESE HAMSTER LUNG (CHL) CELLS, Metabolic Activation: RAT, LIVER, S-9, KC-400) is reported as “active; positive” and the mutagenic call (End Point: IN VITRO MICRONUCLEUS, Test System: CHO CELLS, Metabolic Activation: RAT, LIVER, S-9, AROCLOR 1254) is reported as “inactive; negative”. The mutagenic call (Test System: AMES SALMONELLA TYPHIMURIUM, Strain/Indicator: TA97, Metabolic Activation: NONE, Method: STANDARD PLATE) was “inactive; negative”, the mutagenic call (Test System: AMES SALMONELLA TYPHIMURIUM, Strain/Indicator: TA97, Metabolic Activation: RAT, LIVER, S-9, PCB, Method: STANDARD PLATE) was “inactive; negative” and the mutagenic call [4] was “inactive; negative”. For the same molecule, the mutagenic call (Test System: AMES SALMONELLA TYPHIMURIUM, Strain/Indicator: TA98, Metabolic Activation: RAT, LIVER, S-9, PCB, Method: STANDARD PLATE) was “inactive; negative”, the mutagenic call [3] was “inactive; negative” and the mutagenic call (Test System: AMES SALMONELLA TYPHIMURIUM, Strain/Indicator: TA100, Metabolic Activation: RAT, LIVER, S-9, PCB, Method: STANDARD PLATE) was “inactive; negative”. The mutagenic call (Test System: MOUSE LYMPHOMA, Strain/Indicator: L5178Y (TK+/TK-), Metabolic Activation: NONE, Method: SUSPENSION/PLATE) was “active; positive”, the mutagenic call (Test System: MOUSE LYMPHOMA, Strain/Indicator: L5178Y (TK+/TK-), Metabolic Activation: RAT, LIVER, S-9, AROCLOR 1254, Method: SUSPENSION/PLATE) was “active; positive” and the mutagenic call (Test System: UDS RAT HEPATOCYTES, Strain/Indicator: BROMODEOXYURIDINE INCORP, Metabolic Activation: NONE, Method: FLOW CYTOMETRIC ANALYSIS) was “inactive; negative”.
With `Cn1c([N+](=O)[O-])cnc1-c1nnc(N)s1` the mutagenic call (End Point: IN VITRO CHROMOSOMAL ABERRATIONS, Test System: HUMAN PERIPHERAL LYMPHOCYTES, Species: HUMAN, Strain/Sex: MALE, FEMALE, Metabolic Activation: NONE) was “active; positive (structural changes)”, the mutagenic call (End Point: IN VITRO CHROMOSOMAL ABERRATIONS, Test System: HUMAN PERIPHERAL LYMPHOCYTES, Species: HUMAN, Strain/Sex: MALE, FEMALE, Metabolic Activation: RAT, LIVER, S-9, AROCLOR 1254 (5%)) was “active; positive (structural changes)” and the mutagenic call (End Point: IN VITRO CHROMOSOMAL ABERRATIONS, Test System: HUMAN PERIPHERAL LYMPHOCYTES, Species: HUMAN, Strain/Sex: MALE, FEMALE, Metabolic Activation: RAT, LIVER, S-9, AROCLOR 1254 (10%)) was “active; positive (structural changes)”. For the same molecule, the mutagenic call (End Point: IN VITRO MICRONUCLEUS, Test System: L5178Y MOUSE LYMPHOMA (TK+/-), Metabolic Activation: NONE) was “active; positive (increase in micronucleated cells)”, the mutagenic call (End Point: IN VITRO MICRONUCLEUS, Test System: L5178Y MOUSE LYMPHOMA (TK+/-), Metabolic Activation: RAT, LIVER, S-9, AROCLOR 1254) was “active; positive (increase in micronucleated cells)” and the mutagenic call (End Point: IN VIVO MICRONUCLEUS, Test System: BONE MARROW POLYCHROMATIC ERYTHROCYTES, Species: RAT, Strain/Sex: SPRAGUE-DAWLEY/MALE, FEMALE) was “active; positive”. The mutagenic call (End Point: IN VIVO MICRONUCLEUS, Test System: BONE MARROW POLYCHROMATIC ERYTHROCYTES, Species: RAT, Strain/Sex: SPRAGUE-DAWLEY/MALE, FEMALE, Route: ORAL) was “active; positive”, the mutagenic call (Test System: AMES SALMONELLA TYPHIMURIUM, Strain/Indicator: TA98 (DNP-6), Metabolic Activation: NONE, Method: DESICCATOR) was “active; positive” and the mutagenic call (Test System: AMES SALMONELLA TYPHIMURIUM, Strain/Indicator: TA98 (DNP-6), Metabolic Activation: NONE, Method: STANDARD PLATE) was “active; positive”. For the same molecule, the mutagenic call (Test System: AMES SALMONELLA TYPHIMURIUM, Strain/Indicator: TA98 (DNP-6), Metabolic Activation: RAT LIVER S-9, AROCLOR 1254, 10% (W/V), Method: DESICCATOR) was “active; positive”, the mutagenic call (Test System: AMES SALMONELLA TYPHIMURIUM, Strain/Indicator: TA98 (DNP-6), Metabolic Activation: RAT LIVER S-9, AROCLOR 1254, 10% (W/V), Method: STANDARD PLATE) was “active; positive” and the mutagenic call (Test System: AMES SALMONELLA TYPHIMURIUM, Strain/Indicator: TA98 (NR), Metabolic Activation: NONE, Method: DESICCATOR) was “inactive; negative”. For the same molecule, the mutagenic call (Test System: AMES SALMONELLA TYPHIMURIUM, Strain/Indicator: TA98 (NR), Metabolic Activation: NONE, Method: STANDARD PLATE) was “inactive; negative”, the mutagenic call (Test System: AMES SALMONELLA TYPHIMURIUM, Strain/Indicator: TA98 (NR), Metabolic Activation: RAT LIVER S-9, AROCLOR 1254, 10% (W/V), Method: DESICCATOR) was “inactive; negative” and the mutagenic call (Test System: AMES SALMONELLA TYPHIMURIUM, Strain/Indicator: TA98 (NR), Metabolic Activation: RAT LIVER S-9, AROCLOR 1254, 10% (W/V), Method: STANDARD PLATE) was “inactive; negative”. The mutagenic call (Test System: AMES SALMONELLA TYPHIMURIUM, Strain/Indicator: TA98, Metabolic Activation: NONE, Method: DESICCATOR) was “active; positive”, the mutagenic call [4] was “active; positive” and the mutagenic call (Test System: AMES SALMONELLA TYPHIMURIUM, Strain/Indicator: TA98, Metabolic Activation: RAT LIVER S-9, AROCLOR 1254, 10% (W/V), Method: DESICCATOR) was “active; positive”. The mutagenic call (Test System: AMES SALMONELLA TYPHIMURIUM, Strain/Indicator: TA98, Metabolic Activation: RAT LIVER S-9, AROCLOR 1254, 10% (W/V), Method: STANDARD PLATE) was “active; positive”, the mutagenic call (Test System: AMES SALMONELLA TYPHIMURIUM, Strain/Indicator: TA98, Metabolic Activation: RAT, LIVER, S-9, AROCLOR 1254, Method: STANDARD PLATE) was “active; positive” and the mutagenic call (Test System: AMES SALMONELLA TYPHIMURIUM, Strain/Indicator: TA102, Metabolic Activation: NONE, Method: STANDARD PLATE) was “active; positive”. The mutagenic call (Test System: AMES SALMONELLA TYPHIMURIUM, Strain/Indicator: TA102, Metabolic Activation: RAT, LIVER, S-9, AROCLOR 1254, Method: STANDARD PLATE) was “active; positive”.
